Reference: ChEMBL document CHEMBL1201862, “PubChem BioAssay data set” (2004)
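Assay format: 96-well plates, 48-hour exposure. Abbreviation: GI50, concentration required for 50% inhibition of growth.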 Calls of active or inactive are those of the source. Cut-off read from the data, not from the text of the source: active = GI50 up to about 1.1 µM and inactive = higher.

Columns and labels:
Assay in all cases: NCI anticancer screen, dose series, 48 h
A549 = test system: A549
CAKI-1 = test system: CAKI-1
CCRF-CEM = test system: CCRF-CEM
COLO 205 = test system: COLO 205
HOP-62 = test system: HOP-62
HT-29 = test system: HT-29
IGROV-1 = test system: IGROV-1
NCI-H226 = test system: NCI-H226
NCI-H23 = test system: NCI-H23
OVCAR-8 = test system: OVCAR-8
RXF 393 = test system: RXF 393
SK-MEL-28 = test system: SK-MEL-28
SK-MEL-2 = test system: SK-MEL-2
SK-MEL-5 = test system: SK-MEL-5
SK-OV-3 = test system: SK-OV-3
SN12C = test system: SN12C
UACC-257 = test system: UACC-257
PC-3 = test system: PC-3

Measured: GI50

COc1ccc(-c2[nH]c3ccccc3c2CCNS(=O)(=O)c2ccc(C)cc2)cc1
inactive: A549 6.05 µM | CAKI-1 > 10 µM | CCRF-CEM 3.72 µM | COLO 205 1.83 µM | HOP-62 > 10 µM | HT-29 6.35 µM | IGROV-1 > 6.34 µM | NCI-H226 > 7.6 µM | NCI-H23 > 10 µM | OVCAR-8 > 7.91 µM | RXF 393 > 10 µM | SK-MEL-28 > 10 µM | SK-MEL-2 > 10 µM | SK-MEL-5 > 5.9 µM | SK-OV-3 > 10 µM | SN12C > 10 µM | UACC-257 > 8.34 µM

O=C1CCC(=O)c2ccccc2N1
inactive: A549 > 100 µM | CAKI-1 > 100 µM | CCRF-CEM > 100 µM | COLO 205 > 100 µM | HOP-62 > 100 µM | HT-29 > 100 µM | IGROV-1 > 100 µM | NCI-H226 > 100 µM | NCI-H23 > 100 µM | OVCAR-8 > 100 µM | RXF 393 > 100 µM | SK-MEL-28 > 100 µM | SK-MEL-2 > 100 µM | SK-MEL-5 > 100 µM | SK-OV-3 > 100 µM | SN12C > 100 µM | UACC-257 > 100 µM

Nc1nc2c(ncn2C2OC(CO)C(O)C2O)c(=O)o1 (centres undefined)
inactive: A549 > 100 µM | CAKI-1 > 100 µM | CCRF-CEM > 23.2 µM | COLO 205 > 42 µM | HOP-62 > 100 µM | HT-29 26.4 µM | IGROV-1 > 100 µM | NCI-H226 > 100 µM | NCI-H23 > 84.1 µM | OVCAR-8 > 100 µM | PC-3 > 100 µM | RXF 393 > 100 µM | SK-MEL-28 > 100 µM | SK-MEL-2 > 100 µM | SK-MEL-5 > 100 µM | SK-OV-3 > 100 µM | SN12C > 100 µM | UACC-257 > 100 µM

O=C(NCCCCCCCCNC(=O)c1cnc2ccccc2n1)c1cnc2ccccc2n1
inactive: A549 > 100 µM | CAKI-1 > 100 µM | CCRF-CEM > 100 µM | COLO 205 > 100 µM | HOP-62 > 100 µM | HT-29 > 100 µM | IGROV-1 > 100 µM | NCI-H226 32.1 µM | NCI-H23 > 100 µM | OVCAR-8 > 100 µM | RXF 393 > 100 µM | SK-MEL-2 > 100 µM | SK-MEL-5 > 100 µM | SK-OV-3 > 100 µM | SN12C > 100 µM | UACC-257 > 100 µM

Cc1nc2ccccc2c(=O)n1-c1ccccc1F
inactive: A549 > 100 µM | CAKI-1 > 100 µM | CCRF-CEM > 100 µM | COLO 205 > 100 µM | HOP-62 > 100 µM | HT-29 > 100 µM | IGROV-1 > 100 µM | NCI-H226 > 100 µM | NCI-H23 > 100 µM | OVCAR-8 > 100 µM | RXF 393 > 100 µM | SK-MEL-28 > 100 µM | SK-MEL-2 > 100 µM | SK-MEL-5 > 100 µM | SK-OV-3 > 100 µM | SN12C > 100 µM | UACC-257 > 100 µM

COC(=O)c1c(CC#N)cccc1CC#N
inactive: A549 > 100 µM | CAKI-1 > 100 µM | CCRF-CEM > 100 µM | COLO 205 > 100 µM | HOP-62 > 100 µM | HT-29 > 100 µM | IGROV-1 > 100 µM | NCI-H226 > 100 µM | NCI-H23 > 100 µM | OVCAR-8 > 100 µM | RXF 393 > 100 µM | SK-MEL-2 > 100 µM | SK-OV-3 > 100 µM | SN12C > 100 µM | UACC-257 > 100 µM

C=C(CO)CC(O)c1cc(OC)ccc1OC (centres undefined)
inactive: A549 > 100 µM | CAKI-1 > 100 µM | CCRF-CEM > 100 µM | COLO 205 > 100 µM | HOP-62 > 100 µM | HT-29 > 100 µM | IGROV-1 > 100 µM | NCI-H226 > 100 µM | OVCAR-8 > 100 µM | RXF 393 > 100 µM | SK-MEL-28 > 100 µM | SK-MEL-2 > 100 µM | SK-MEL-5 > 100 µM | SK-OV-3 > 100 µM | SN12C > 100 µM | UACC-257 > 100 µM

OCCN1CCN2C=C(C3CCCC4N(CCO)CCN34)CCC21 (centres undefined)
inactive: A549 > 100 µM | CAKI-1 48 µM | CCRF-CEM 5.56 µM | COLO 205 > 65.2 µM | HOP-62 > 100 µM | HT-29 68.9 µM | IGROV-1 76 µM | NCI-H226 > 91 µM | NCI-H23 43 µM | OVCAR-8 35.2 µM | RXF 393 20.3 µM | SK-MEL-28 42 µM | SK-MEL-2 23.5 µM | SK-MEL-5 41.9 µM | SK-OV-3 > 69.2 µM | SN12C 39.5 µM | UACC-257 > 100 µM

Cc1ccc(C)c(NC(=O)CC/C(=N\NC(=O)C(N)=O)C(C)C(=O)c2ccc(O)cc2)c1 (centres undefined)
inactive: A549 > 100 µM | CAKI-1 > 100 µM | CCRF-CEM > 100 µM | COLO 205 > 100 µM | HOP-62 > 100 µM | HT-29 > 100 µM | IGROV-1 > 100 µM | NCI-H226 > 100 µM | NCI-H23 > 100 µM | OVCAR-8 > 100 µM | RXF 393 61.1 µM | SK-MEL-28 > 100 µM | SK-MEL-2 > 100 µM | SK-MEL-5 > 100 µM | SK-OV-3 > 100 µM | SN12C > 100 µM | UACC-257 > 100 µM

CCCCCCCCCCCCCC(=O)OCC1OC(n2cc(F)c(=O)[nH]c2=O)C(NC(=O)OCc2ccccc2)C(OC(=O)CCCCCCCCCCCCC)C1O (centres undefined)
inactive: A549 > 100 µM | CAKI-1 > 100 µM | CCRF-CEM > 100 µM | COLO 205 > 100 µM | HOP-62 > 100 µM | HT-29 > 100 µM | IGROV-1 > 100 µM | NCI-H226 > 100 µM | NCI-H23 > 100 µM | OVCAR-8 > 100 µM | RXF 393 > 100 µM | SK-MEL-28 > 100 µM | SK-MEL-2 > 100 µM | SK-MEL-5 > 100 µM | SK-OV-3 > 100 µM | SN12C > 100 µM | UACC-257 > 100 µM

COc1ccc2c(c1)[n+]([O-])c(C(=O)C/C(=N/NC(=O)C[N+](C)(C)C)C(=O)Nc1cccc(C)c1C)c(C)[n+]2[O-]
inactive: A549 > 100 µM | CAKI-1 > 100 µM | COLO 205 > 100 µM | HOP-62 > 100 µM | HT-29 > 100 µM | IGROV-1 > 100 µM | NCI-H226 > 100 µM | NCI-H23 > 100 µM | OVCAR-8 > 100 µM | RXF 393 > 100 µM | SK-MEL-28 > 100 µM | SK-MEL-2 > 100 µM | SK-OV-3 > 100 µM | SN12C > 100 µM | UACC-257 28.6 µM

CCCCCCCCCCCCCCCCCC[N+](C)(C)Cc1ccc(C[N+](C)(C)CCCCCCCCCCCCCCCCCC)cc1
inactive: A549 13.6 µM | CAKI-1 21.2 µM | CCRF-CEM 16.9 µM | COLO 205 34.8 µM | HOP-62 4.41 µM | HT-29 18.7 µM | IGROV-1 16.6 µM | NCI-H226 5.53 µM | NCI-H23 4.09 µM | OVCAR-8 6.5 µM | RXF 393 2.71 µM | SK-MEL-28 18.1 µM | SK-MEL-2 24.1 µM | SK-MEL-5 22.8 µM | SK-OV-3 26.6 µM | SN12C 10.9 µM | UACC-257 15.9 µM
